The text below walks through data of PMC9313321 (Biomedicines, 2022).

In test [1] the target is T1, Cu(II)-induced Aβ42 aggregation (Homo sapiens, UniProt P05067).
T1 construct: Beta-amyloid protein, fragment 1-42; purchased GeneCust
The test is described as follows: Inhibition of Cu(II)-induced Aβ42 aggregation (thioflavin T fluorescence). Type of test: biochemical. The note with it: for inhibition at 20 µM: read-out: Aβ42 Cu-Ind. Aggreg. Inhib, copper (40 μM), 20 μM inhibitor, thioflavin-T fluorescence, 37 °C 24 h. On the procedure:
The inhibition of Aβ42 aggregation and Cu(II)-induced Aβ42 aggregation, carried out by the RIV–BIM hybrids, was studied using a reported method based on the fluorescence emission of thioflavin T [52, 53].
Solutions of phosphate buffer 0.215 M at pH = 8.00, Na2CO3 300 μM in distilled water, NaOH 250 mM in distilled water, glycine-NaOH 50 mM buffer at pH = 8.50 and CuCl2 240 μM in phosphate buffer were prepared. Stock solutions of […] of the RIV–BIM compounds were prepared in MeOH (with 20% DMSO). Working solutions of 240 μM of the RIV–BIM hybrids were prepared by the proper dilution of their stock solutions with phosphate buffer. A working solution of glycine-NaOH 50 mM buffer at pH = 8.50 containing 5 μM of thioflavin T (ThT) was prepared daily. Aβ42 (GeneCust) was pre-treated with 1,1,1,3,3,3-hexafluoro-2-propanol (HFIP) to obtain a solution of 0.149 mM by brief sonication and vortexing, which was kept covered overnight at room temperature. From the Aβ42 solution, aliquots of 250 μL were placed into Eppendorf tubes under ice and set to evaporate inside a hood at room temperature overnight. When the contents of the Eppendorf tubes were dried, the Aβ42 aliquots were stored at −20 °C until needed. To obtain the Aβ42 working solution, the Aβ42 aliquots were dissolved with a freshly prepared mixture of 69.5 μL of CH3CN/Na2CO3 (300 μM)/NaOH (250 mM) (48.3/48.3/3.4, v/v/v) by brief sonication and vortexing to obtain an Aβ42 solution of 531.24 μM. To this solution, 392.5 μL of phosphate buffer was added, achieving an Aβ42 working solution of 80 μM. To prepare the incubations, three replicates of Aβ42 alone (30 μL Aβ42 80 μM + 30 μL phosphate buffer), Aβ42 with RIV–BIM (30 μL Aβ42 80 μM + 10 μL RIV–BIM 240 μM + 20 μL phosphate buffer), Aβ42 with copper (30 μL Aβ42 80 μM + 10 μL CuCl2 240 μM + 20 μL phosphate buffer) and Aβ42 with copper and RIV–BIM (30 μL Aβ42 80 μM + 10 μL CuCl2 240 μM + 10 μL RIV–BIM 240 μM + 10 μL phosphate buffer) were placed in Eppendorfs. To obtain the blank solutions, a similar number of Eppendorfs, replacing Aβ42 with phosphate buffer, were prepared. Incubations were performed in a water bath at 37 °C with agitation for 24 h. Afterwards, 180 μL of glycine-NaOH 50 mM buffer at pH = 8.50 containing 5 μM of ThT was added to each Eppendorf and then they were vortexed. Finally, 200 μL of solution from each Eppendorf was placed in the wells of a microplate and fluorescence measurements were monitored using a Spectramax Gemini EM (Molecular Devices) fluorimeter with an excitation wavelength of 446 nm and an emission wavelength of 485 nm. Blank signals were subtracted from the corresponding samples. The fluorescence intensity of the Aβ42 + RIV–BIM solution was compared to that of the Aβ42 solution to obtain the inhibition of Aβ42 self-aggregation for each compound. The fluorescence intensity of the Aβ42 + Cu(II) + RIV–BIM solution was compared to that of the Aβ42 + Cu(II) solution to obtain the inhibition of the Cu(II)-induced Aβ42 aggregation for each hybrid.
The anti-amyloidogenic capacity of the compounds was assessed in vitro using the thioflavin T (ThT) method. To record fluorescence emission, excitation (446 nm) and emission (485 nm) wavelengths were used. When ThT binds to amyloid fibrils, an increase in absorbance and emission of this dye occurs with concomitant red shifts of the respective spectra. The percent of inhibition of Aβ42 aggregation is shown in Table 1, and the assays were performed in the presence of 20 μM of inhibitor. These concentration conditions were used to overcome solubility problems of some compounds in the aqueous phosphate buffer working medium. […]. […]

Test [2] in a line: Radical scavenging activity (DPPH method). Particulars: read-out: Antioxid. EC50, 30 min, absorbance 517 nm. (DPPH is a stable violet radical that fades when it is reduced.)
Protocol: To determine the radical scavenging activity (antioxidant activity) of the novel RIV–BIM hybrids, the DPPH method was performed as previously described in the literature [49]. Working solutions of 20 mg of the ligands were prepared daily in 10 mL of MeOH (with a 10% of DMSO). A working solution of 2 mg DPPH in 100 mL MeOH was prepared daily, and its absorbance was checked to be between 0.75 and 1.00 (a.u.). […] Each one of the calibrate points was kept for 30 min under darkness to allow the ligands to exert their antioxidant effects. After 30 min, an auto-zero was performed with MeOH in both sample and reference cells, using a UV–Vis spectrophotometer. […] The antioxidant activity (%AA) for each point was calculated using the following equation: %AA=ADPPH−Aligand/ADPPH×100
The radical scavenging activity of the RIV–BIM compounds was determined by a spectrophotometric method involving the 2,2-diphenyl-1-picrylhydrazyl (DPPH) free radical [35, 64].

By EC50 is commonly meant the concentration at which the effect is half-maximal.

T1 sequence (P05067 672-713 limits assumed): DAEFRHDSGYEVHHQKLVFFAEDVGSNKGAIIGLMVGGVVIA

Take `CCN(C)C(=O)Oc1ccc(CCCNC(=O)c2ccc3nc(-c4ccccc4O)[nH]c3c2)cc1` [Compound 4d, 4-(3-(2-(2-Hydroxyphenyl)-1H-benzo[d]imidazole-6-carboxamido)propyl) Phenyl Ethylmethylcarbamate]: the inhibition at 20 µM in test [1] was 21.3%. Turning to `CCN(C)C(=O)Oc1cccc(CNC(=O)c2cccc3[nH]c(-c4ccccc4O)nc23)c1` [Compound 5b, 3-((2-(2-Hydroxyphenyl)-1H-benzo[d]imidazole-4-carboxamido)methyl) Phenyl Ethylmethylcarbamate], in test [1], the inhibition at 20 µM was 60.8%. Regarding `CCN(C)C(=O)Oc1cccc(CCNC(=O)c2ccc3nc(-c4ccccc4O)[nH]c3c2)c1` [Compound 4c, 3-(2-(2-(2-Hydroxyphenyl)-1H-benzo[d]imidazole-6-carboxamido)ethyl) Phenylethylmethylcarbamate], the concentration for a half-maximal effect (EC50) in test [2] came out at 10 mM. The inhibition at 20 µM in test [1] came to 22%. With `CCN(C)C(=O)Oc1cccc(NC(=O)c2cccc3[nH]c(-c4ccccc4O)nc23)c1` [Compound 5a, 3-(2-(2-Hydroxyphenyl)-1H-benzo[d]imidazole-4-carboxamido)phenyl Ethylmethylcarbamate], the inhibition at 20 µM in test [1] was determined as 45.4%. For `CCN(C)C(=O)Oc1cccc(NC(=O)c2ccc3nc(-c4ccccc4O)[nH]c3c2)c1` [Compound 4a, 3-(2-(2-Hydroxyphenyl)-1H-benzo[d]imidazole-6-carboxamido)phenyl Ethylmethylcarbamate], the inhibition at 20 µM in test [1] is 41.2%. In the case of `CCN(C)C(=O)Oc1ccc(CCCNC(=O)c2cccc3[nH]c(-c4ccccc4O)nc23)cc1` [Compound 5d, 4-(3-(2-(2-Hydroxyphenyl)-1H-benzo[d]imidazole-4-carboxamido) Propyl) Phenyl Ethyl(methyl)carbamate], the “Aβ42 Cu-Ind. Aggreg. Inhib” value in test [1] (copper (40 μM), 20 μM inhibitor, thioflavin-T fluorescence, 37 °C 24 h) worked out at 40.3%. Also, the inhibition at 20 µM in test [1] was 41.2 to 60.8%. As for `CCN(C)C(=O)Oc1cccc(CNC(=O)c2ccc3nc(-c4ccccc4O)[nH]c3c2)c1` [Compound 4b, 3-((2-(2-Hydroxyphenyl)-1H-benzo[d]imidazole-6-carboxamido)methyl) Phenyl Ethylmethylcarbamate], the EC50 in test [2] was 0.9 ± 0.1 mM. In addition, the inhibition at 20 µM in test [1] worked out at 48.8%.
